Results from paper PMC7031696 (Cell chemical biology, 2019).
Like-named read-outs stand apart in the source and are kept apart here.

How the values were obtained:
[1] = test system: Plasmodium falciparum 3D7-A10 parasites; assay: Stage specificity assay (8-h exposure of synchronized stages, IC50^8h); type: cell-based; details: for IC50: Plasmodium falciparum
[2] = test system: 3D7-MR4 trophozoite parasite-infected RBCs; assay: Metabolomic profiling (hydrophilic metabolite changes, UHPLC-MS); type: cell-based, Plasmodium falciparum
[3] = test system: asynchronous 3D7-A10 parasite cultures; assay: Standard 72-h exposure asexual blood stage susceptibility assay (IC50^72h); type: cell-based, Plasmodium falciparum; details: Plasmodium falciparum, 3D7, 72 h, read-out: Overall (72hr assay) Mean IC50 (IC50^72h)

Ratio lowest IC50 8hr/IC50 72hr ([1]; 3D7-A10): 1.8
IC50 [3]: 1.8 nM
SMILES: CN(C)c1ccc2nc3ccc(=[N+](C)C)cc-3sc2c1 [Methylene blue, reference compound]
IC50 ([1]; 3D7, read-out: Early rings Mean IC50 (IC50^8h), 8-h exposure 0–8 hr, 3D7-A10, survival at 60 h): 3.2 nM
IC50 ([1]; 3D7, read-out: Early trophozoites Mean IC50 (IC50^8h), 8-h exposure 16–24 hr, 3D7-A10, survival at 60 h): 5.9 nM
IC50 ([1]; 3D7, read-out: Late rings Mean IC50 (IC50^8h), 8-h exposure 8–16 hr, 3D7-A10, survival at 60 h): 13.3 nM
IC50 ([1]; 3D7, read-out: Late trophozoites Mean IC50 (IC50^8h), 8-h exposure 24–32 hr, 3D7-A10, survival at 60 h): 8.3 nM
IC50 ([1]; 3D7, read-out: Schizonts Mean IC50 (IC50^8h), 8-h exposure 32–40 hr, 3D7-A10, survival at 60 h): 64.8 nM
Stage of peak activity (Figure 6) ([1]; period when the parasite was most susceptible (lowest IC50^8h)): rings and trophozoites
changes within the set of metabolites detected (low fold change group) ([2]; 10 × IC50^72h, 2.5 hr, trophozoites): did not induce major changes
Log2(fold changes) 3-phosphoglycerate ([2]; metabolite 3-phosphoglycerate, log2 fold change): 0.1717
Log2(fold changes) 4-Pyridoxic acid ([2]; metabolite 4-Pyridoxic acid, log2 fold change): 0.0000
Log2(fold changes) 4-aminobutyrate ([2]; metabolite 4-aminobutyrate, log2 fold change): -0.1073
Log2(fold changes) 4-phosphopantetheine ([2]; metabolite 4-phosphopantetheine, log2 fold change): 0.0000
Log2(fold changes) 4-phosphopantothenate ([2]; metabolite 4-phosphopantothenate, log2 fold change): -0.3089
Log2(fold changes) 5-aminopentanoic acid ([2]; metabolite 5-aminopentanoic acid, log2 fold change): 0.0000
Log2(fold changes) 5-methyl-THF ([2]; metabolite 5-methyl-THF, log2 fold change): 0.0000
Log2(fold changes) 5-phosphoribosyl-1-pyrophosphate ([2]; metabolite 5-phosphoribosyl-1-pyrophosphate, log2 fold change): 0.7627
Log2(fold changes) 6-phospho-D-gluconate ([2]; metabolite 6-phospho-D-gluconate, log2 fold change): 0.0184
Log2(fold change) HVDD ([2]; metabolite HVDD): 0.0000
Log2(fold change) Hydroxyisocaproic acid ([2]; metabolite Hydroxyisocaproic acid): 0.0000
Log2(fold change) IDP ([2]; metabolite IDP): 0.2471
Log2(fold change) IMP ([2]; metabolite IMP): -0.1535
Log2(fold change) Inositol ([2]; metabolite Inositol): 0.0000
Log2(fold change) Isopentyl-PP ([2]; metabolite Isopentyl-PP): 0.0000
Log2(fold change) L-arginino-succinate ([2]; metabolite L-arginino-succinate): 0.0000
Log2(fold change) LD ([2]; metabolite LD): -0.0546
Log2(fold change) Myristoyl/tetradecanoyl-CoA ([2]; metabolite Myristoyl/tetradecanoyl-CoA): 0.0000
Log2(fold change) N-Acetyl-L-alanine ([2]; metabolite N-Acetyl-L-alanine): 0.0660
Log2(fold change) N-acetyl-L-ornithine ([2]; metabolite N-acetyl-L-ornithine): -0.0972
Log2(fold change) N-acetyl-glucosamine-1/6-phosphate ([2]; metabolite N-acetyl-glucosamine-1/6-phosphate): -0.3026
Log2(fold change) N-acetyl-glutamate ([2]; metabolite N-acetyl-glutamate): -0.1200
Log2(fold change) N-acetyl-glutamine ([2]; metabolite N-acetyl-glutamine): 0.0000
Log2(fold change) N-carbamoyl-L-aspartate ([2]; metabolite N-carbamoyl-L-aspartate): -0.4399
Log2(fold change) NAD+ ([2]; metabolite NAD+): -0.1775
Log2(fold change) NADH ([2]; metabolite NADH): 0.6869
Log2(fold change) NADP+ ([2]; metabolite NADP+): 0.0190
Log2(fold change) NADPH ([2]; metabolite NADPH): 0.5257
Log2(fold change) O-acetyl-L-serine ([2]; metabolite O-acetyl-L-serine): 0.0000
Log2(fold change) Octoluse 8/1P ([2]; metabolite Octoluse 8/1P): -0.1481
Log2(fold change) Octoluse Bisphosphate ([2]; metabolite Octoluse Bisphosphate): -0.0868
Log2(fold change) PD ([2]; metabolite PD): -0.1726
Log2(fold change) PE ([2]; metabolite PE): -0.0321
Log2(fold change) PEE ([2]; metabolite PEE): 0.0787
Log2(fold change) PEEK ([2]; metabolite PEEK): 0.2857
Log2(fold change) PVNF ([2]; metabolite PVNF): 0.3021
Log2(fold change) Pyroglutamic acid ([2]; metabolite Pyroglutamic acid): -0.1430
Log2(fold change) Pyrophosphate ([2]; metabolite Pyrophosphate): 0.0000
Log2(fold change) Ribose-5-phosphate ([2]; metabolite Ribose-5-phosphate): 0.0744
Log2(fold change) S-adenosyl-L-homocysteine ([2]; metabolite S-adenosyl-L-homocysteine): -0.2409
Log2(fold change) S-adenosyl-L-methioninamine ([2]; metabolite S-adenosyl-L-methioninamine): 0.0000
Log2(fold change) S-adenosyl-L-methionine ([2]; metabolite S-adenosyl-L-methionine): 0.0000
Log2(fold change) S-methyl-5'-thioadenosine ([2]; metabolite S-methyl-5'-thioadenosine): -0.0807
Log2(fold change) SD ([2]; metabolite SD): -0.0525
Log2(fold change) SDL ([2]; metabolite SDL): 0.0000
Log2(fold change) SID ([2]; metabolite SID): 0.0000
Log2(fold change) Sedoheptulose bisphosphate ([2]; metabolite Sedoheptulose bisphosphate): 0.0024
Log2(fold change) Thiamine pyrophosphate ([2]; metabolite Thiamine pyrophosphate): -0.2290
Log2(fold changes) UDP-D-glucose ([2]; metabolite UDP-D-glucose, log2 fold change): -0.0680
Log2(fold changes) UDP-D-glucuronate ([2]; metabolite UDP-D-glucuronate, log2 fold change): 0.0789
Log2(fold changes) UDP-N-acetyl-glucosamine ([2]; metabolite UDP-N-acetyl-glucosamine, log2 fold change): -0.1825
Log2(fold changes) UDP ([2]; metabolite UDP, log2 fold change): -0.3881
Log2(fold changes) UMP ([2]; metabolite UMP, log2 fold change): -0.2463
Log2(fold changes) UTP ([2]; metabolite UTP, log2 fold change): -0.0408
Log2(fold change) hydroxyphenylpyruvate ([2]; metabolite hydroxyphenylpyruvate): 0.0000
Log2(fold change) hydroxyproline/Aminolevulinate ([2]; metabolite hydroxyproline/Aminolevulinate): 0.0000
Log2(fold change) hypoxanthine ([2]; metabolite hypoxanthine): 0.0000
Log2(fold change) indole ([2]; metabolite indole): 0.0000
Log2(fold change) inosine ([2]; metabolite inosine): -0.4017
Log2(fold change) isoleucine ([2]; metabolite isoleucine): 0.7210
Log2(fold change) lactate ([2]; metabolite lactate): -0.1398
Log2(fold change) leucine ([2]; metabolite leucine): 0.2614
Log2(fold change) lysine ([2]; metabolite lysine): -0.0829
Log2(fold change) malate ([2]; metabolite malate): -0.0400
Log2(fold change) maleic acid ([2]; metabolite maleic acid): -0.0220
Log2(fold change) methionine ([2]; metabolite methionine): 0.1258
Log2(fold change) myo-inositol ([2]; metabolite myo-inositol): -0.2003
Log2(fold change) nicotinamide mononucleotide ([2]; metabolite nicotinamide mononucleotide): -0.1519
Log2(fold change) nicotinate ([2]; metabolite nicotinate): -0.3017
Log2(fold change) ornithine ([2]; metabolite ornithine): 0.0000
Log2(fold change) orotate ([2]; metabolite orotate): -0.5750
Log2(fold change) orotidine-5'-phosphate ([2]; metabolite orotidine-5'-phosphate): -0.6269
Log2(fold change) oxaloacetate ([2]; metabolite oxaloacetate): 0.0000
Log2(fold change) p-aminobenzoate ([2]; metabolite p-aminobenzoate): 0.0000
Log2(fold change) p-hydroxybenzoate ([2]; metabolite p-hydroxybenzoate): 0.0000
Log2(fold change) pantothenate ([2]; metabolite pantothenate): -1.6576
Log2(fold change) phenylalanine ([2]; metabolite phenylalanine): 0.0379
Log2(fold change) phenylpyruvate ([2]; metabolite phenylpyruvate): 0.0000
Log2(fold change) phosphoenolpyruvate ([2]; metabolite phosphoenolpyruvate): 0.1672
Log2(fold change) prephenate ([2]; metabolite prephenate): 0.0000
Log2(fold change) proline ([2]; metabolite proline): 0.1190
Log2(fold change) pyridoxine ([2]; metabolite pyridoxine): -0.1182
Log2(fold change) pyruvate ([2]; metabolite pyruvate): -0.0447
Log2(fold change) riboflavin ([2]; metabolite riboflavin): -0.0900
Log2(fold change) ribose ([2]; metabolite ribose): 0.0000
Log2(fold change) ribose-phosphate ([2]; metabolite ribose-phosphate): -0.1993
Log2(fold change) ribulose-5-phosphate ([2]; metabolite ribulose-5-phosphate): -0.1201
Log2(fold change) serine ([2]; metabolite serine): -0.0692
Log2(fold change) sn-glycerol-3-phosphate ([2]; metabolite sn-glycerol-3-phosphate): 0.0549
Log2(fold change) succinate/Methylmalonic acid ([2]; metabolite succinate/Methylmalonic acid): 0.4289
Log2(fold change) succinyl-CoA/methylmalonyl-CoA ([2]; metabolite succinyl-CoA/methylmalonyl-CoA): 0.0000
Log2(fold change) taurine ([2]; metabolite taurine): 0.1250
Log2(fold change) thiamine ([2]; metabolite thiamine): -0.2233
Log2(fold change) threonine/homoserine ([2]; metabolite threonine/homoserine): -0.1021
Log2(fold change) thymidine ([2]; metabolite thymidine): 0.0000
Log2(fold changes) thymine ([2]; metabolite thymine, log2 fold change): 0.0000
Log2(fold changes) trehalose-6-Phosphate ([2]; metabolite trehalose-6-Phosphate, log2 fold change): 0.0000
Log2(fold changes) tryptophan ([2]; metabolite tryptophan, log2 fold change): 0.0214
Log2(fold changes) tyrosine ([2]; metabolite tyrosine, log2 fold change): 0.0876
Log2(fold changes) uridine ([2]; metabolite uridine, log2 fold change): -0.4227
